Key:
POAAN (annual bluegrass) = test: Pre-plant incorporated (PPI) herbicidal activity, cool season; assay type: in vivo, Poa annua; details: weed, PPI application; for inhibition at 30 g/ha / inhibition at 100 g/ha / inhibition at 300 g/ha / inhibition at 900 g/ha: Poa annua, read-out: Percent inhibition POAAN
Procedure: (§1) In another set of tests, the pre-plant incorporated (PPI) activity of compounds of this invention was evaluated on the same species as for the pre-emergence tests described above. In the PPI tests the following procedure, designed to simulate PPI application, was used.
(§2) A pre-prepared topsoil mixture (described above) was placed in a pot and compacted to a depth of 1.0 to 1.25 cm from the top of the pot. Seeds of each of several monocotyledonous and dicotyledonous annual plant species were placed on top of the soil. A sufficient quantity of soil to cover the seeds and level fill the pot was weighed into an open container. A known amount of the test compound was dissolved or suspended in an organic solvent and applied by spraying to this cover soil. The cover soil was thoroughly mixed to distribute the test compound throughout the cover soil, and was then applied as a cover layer over the seeds. Untreated soil was used as a cover layer for control pots. After treatment the plants were placed in a greenhouse where they received 0.64 cm of overhead irrigation. All subsequent watering consisted of a light overhead mist and/or subirrigation as needed for germination and growth. Tables 9 and 10 below relate to warm season plant species which were placed after pre-emergence treatment in a greenhouse with a 30/21° C. day/night temperature regime. Tables 11 and 12 below relates to cool season plant species placed after pre-emergence treatment in a greenhouse or growth chamber with an 18/13° C. day/night temperature regime. Only the compounds of Examples 1, 6, 8, 11, 13 and 15-20 were included in PPI tests.
(§3) Approximately 14 days after planting and treating, the plants were observed and herbicidal efficacy recorded as percent inhibition by comparison with untreated plants.

SETFA (giant foxtail) = test: Pre-emergence herbicidal activity, warm season; assay type: in vivo, Setaria faberi; details: for Pre-emergence activity (GR80) SETFA: GR80 = lowest tested rate (300, 100, 30, 10 g/ha) with 80% or greater inhibition, approx. 14 days after treating, 30/21° C.; for inhibition at 10 g/ha / inhibition at 30 g/ha / inhibition at 100 g/ha / inhibition at 300 g/ha / inhibition at 900 g/ha: Setaria faberi, pre-emergence application, read-out: Percent inhibition, weed SETFA
Summary of the method: (§4)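 GR80 values derive from percent inhibition relative to untreated plants, read roughly 14 days after sowing and pre-emergence soil-surface treatment (compound in 50:50 acetone/water; rates typically 10, 30, 100, 300 g/ha). Warm-season weeds grew at 30/21° C day/night, cool-season ones at 18/13° C; an asterisk marks activity without reaching 80% at the highest rate.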

AVEFA (wild oat) = test: Pre-plant incorporated (PPI) herbicidal activity, cool season; assay type: in vivo, Avena fatua; details: for inhibition at 30 g/ha / inhibition at 100 g/ha / inhibition at 300 g/ha / inhibition at 900 g/ha: Avena fatua, read-out: Percent inhibition AVEFA; for inhibition at 30 g/ha / inhibition at 100 g/ha / inhibition at 300 g/ha / inhibition at 900 g/ha / Percent inhibition AVEFA: weed, PPI application; for PPI activity GR80, AVEFA: pre-plant incorporated, lowest tested rate with 80% or greater inhibition, about 14 days
Procedure: as §1, §2, §3

SORVU (shattercane) = test: Pre-emergence herbicidal activity, warm season; assay type: in vivo, Sorghum vulgare; details: for Pre-emergence activity (GR80) SORVU: GR80 = lowest tested rate (300, 100, 30, 10 g/ha) with 80% or greater inhibition, approx. 14 days after treating, 30/21° C.; for inhibition at 10 g/ha / inhibition at 30 g/ha / inhibition at 100 g/ha / inhibition at 300 g/ha / inhibition at 900 g/ha: Sorghum bicolor, pre-emergence application, read-out: Percent inhibition, weed SORVU
Summary of the method: as §4

rice (ORYSA) = test: Selectivity test, PPI, warm season crop; assay type: in vivo, Oryza sativa; details: PPI application; for inhibition at 10 g/ha / inhibition at 30 g/ha / inhibition at 100 g/ha / inhibition at 300 g/ha / inhibition at 900 g/ha: Oryza sativa, read-out: Percent inhibition ORYSA
Procedure: as §2, §3
Additional pre-emergence and PPI tests were conducted by the procedures described above, on warm and cool season weed species in the presence of crop species, to assess herbicidal selectivity. Crop species included in warm season tests were corn (Zea mays, ZEAMX), rice (Oryza sativa, ORYSA) and soybean (Glycine max, GLYMX). Crop species included in cool season tests were wheat (Triticum aestivum, TRZAW), barley (Hordeunm vulgare, HORVX) and oilseed rape (Brassica napus, BRSNS).
Tables 15 and 16 relate to pre-emergence and PPI tests respectively on warm season species. Table 17 relates to pre-emergence tests on cool season species.

ALOMY (blackgrass) = test: Post-emergence herbicidal activity, cool season; assay type: in vivo, Alopecurus myosuroides; details: abraded plants sprayed at 300, 100, 30 and 10 g/ha; about 14 days after treatment
Summary of the method: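 Greenhouse test on sand-abraded seedlings sprayed 9 to 14 days after planting at 300, 100, 30 and 10 g/ha; GR80 from percent inhibition versus controls at approximately 14 days.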

[1] = tested on: PANMI (wild proso millet); test: Pre-emergence herbicidal activity, warm season; assay type: in vivo, Panicum miliaceum; details: for Pre-emergence activity (GR80) PANMI: GR80 = lowest tested rate (300, 100, 30, 10 g/ha) with 80% or greater inhibition, approx. 14 days after treating, 30/21° C.; for inhibition at 10 g/ha / inhibition at 30 g/ha / inhibition at 100 g/ha / inhibition at 300 g/ha / inhibition at 900 g/ha: Panicum miliaceum, pre-emergence application, read-out: Percent inhibition, weed PANMI
Summary of the method: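 Activity is expressed as the rate giving 80% inhibition, with 300, 100, 30 and 10 g/ha typically tested. An asterisk marks activity short of 80% at the top rate. Warm-season grasses were held at 30/21 °C; cool-season blackgrass and wild buckwheat at 18/13 °C; scoring at about 14 days.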

SMILES | inhibition at 30 g/ha (POAAN (annual bluegrass); 30 g/ha) [%] | inhibition at 100 g/ha (POAAN (annual bluegrass); 100 g/ha) [%] | inhibition at 300 g/ha (POAAN (annual bluegrass); 300 g/ha) [%] | inhibition at 900 g/ha (POAAN (annual bluegrass); 900 g/ha) [%] | Pre-emergence activity (GR80) SETFA (SETFA (giant foxtail)) | inhibition at 10 g/ha (SETFA (giant foxtail)) [%] | inhibition at 30 g/ha (SETFA (giant foxtail)) [%] | inhibition at 100 g/ha (SETFA (giant foxtail)) [%] | inhibition at 300 g/ha (SETFA (giant foxtail)) [%] | inhibition at 900 g/ha (SETFA (giant foxtail)) [%] | inhibition at 30 g/ha (AVEFA (wild oat); 30 g/ha) [%] | inhibition at 100 g/ha (AVEFA (wild oat); 100 g/ha) [%] | PPI activity GR80, AVEFA (AVEFA (wild oat)) | Pre-emergence activity (GR80) SORVU (SORVU (shattercane)) | inhibition at 30 g/ha (rice (ORYSA); 30 g/ha) [%] | inhibition at 100 g/ha (rice (ORYSA); 100 g/ha) [%] | inhibition at 300 g/ha (rice (ORYSA); 300 g/ha) [%] | inhibition at 900 g/ha (rice (ORYSA); 900 g/ha) [%] | Post-emergence activity GR80, ALOMY (ALOMY (blackgrass)) | Pre-emergence activity (GR80) PANMI [1] [g/ha] | other results
CCN(CC)C(=O)n1cnc(S(=O)(=O)C(F)(F)Br)n1 [Example 1, 3-(bromodifluoromethylsulfonyl)-1-(N,N-diethylcarbamoyl)-1,2,4-triazole] | 90 | 99 | 100 | 100 | 100 g/ha | 0 | 0 | 40 | 100 | 100 | 0 | 20 | 300 g/ha | * (activity observed, at least at highest rate, but <80% inhibition) | 0 | 40 | 60 | 90 | [empty] | 100 | inhibition at 300 g/ha (AVEFA (wild oat); 300 g/ha): 95%; inhibition at 900 g/ha (AVEFA (wild oat); 900 g/ha): 90%; inhibition at 10 g/ha (SORVU (shattercane)): 0%; inhibition at 30 g/ha (SORVU (shattercane)): 0%; inhibition at 100 g/ha (SORVU (shattercane)): 60%; inhibition at 300 g/ha (SORVU (shattercane)): 80%; inhibition at 900 g/ha (SORVU (shattercane)): 95%; inhibition at 10 g/ha (rice (ORYSA); 10 g/ha): 0%; inhibition at 10 g/ha [1]: 0%; inhibition at 30 g/ha [1]: 0%; inhibition at 100 g/ha [1]: 30%; inhibition at 300 g/ha [1]: 100%; inhibition at 900 g/ha [1]: 90%
CCSC(F)(F)S(=O)(=O)c1ncn(C(=O)N(CC)CC)n1 [Example 8, 1-(N,N-diethylcarbamoyl)-3-[difluoro(ethylthio)methylsulfonyl]-1,2,4-triazole] | 100 | 100 | 100 | 100 | 100 g/ha | – | – | – | – | – | 10 | 75 | 100 g/ha | 100 g/ha | 0 | 40 | 50 | 70 | [empty] | 100 | inhibition at 300 g/ha (AVEFA (wild oat); 300 g/ha): 95%; inhibition at 900 g/ha (AVEFA (wild oat); 900 g/ha): 100%
CCN(CC)C(=O)n1cnc(S(=O)(=O)C(F)(F)SC)n1 [Example 9] | – | – | – | – | 100 g/ha | – | – | – | – | – | – | – | – | 300 g/ha | – | – | – | – | [empty] | 100 | Percent inhibition POAAN (POAAN (annual bluegrass); 30 g/ha): 90%; Percent inhibition POAAN (POAAN (annual bluegrass); 100 g/ha): 100%; Percent inhibition POAAN (POAAN (annual bluegrass); 300 g/ha): 100%; Percent inhibition POAAN (POAAN (annual bluegrass); 900 g/ha): 100%; Percent inhibition AVEFA (AVEFA (wild oat); 30 g/ha): 0%; Percent inhibition AVEFA (AVEFA (wild oat); 100 g/ha): 20%; Percent inhibition AVEFA (AVEFA (wild oat); 300 g/ha): 100%; Percent inhibition AVEFA (AVEFA (wild oat); 900 g/ha): 100%; Percent inhibition ORYSA (rice (ORYSA); 30 g/ha): 0%; Percent inhibition ORYSA (rice (ORYSA); 100 g/ha): 0%; Percent inhibition ORYSA (rice (ORYSA); 300 g/ha): 70%; Percent inhibition ORYSA (rice (ORYSA); 900 g/ha): 95%
CCN(CC)C(=O)n1cnc(S(=O)(=O)C(F)(F)SCCOC)n1 [Example 13] | – | – | – | – | * (activity observed, at least at highest rate, but <80% inhibition) | – | – | – | – | – | – | – | [empty] | * (activity observed, at least at highest rate, but <80% inhibition) | – | – | – | – | [empty] | 300 | Percent inhibition POAAN (POAAN (annual bluegrass); 10 g/ha): 0%; Percent inhibition POAAN (POAAN (annual bluegrass); 30 g/ha): 50%; Percent inhibition POAAN (POAAN (annual bluegrass); 100 g/ha): 90%; Percent inhibition POAAN (POAAN (annual bluegrass); 300 g/ha): 100%; Percent inhibition POAAN (POAAN (annual bluegrass); 900 g/ha): 95%; Percent inhibition AVEFA (AVEFA (wild oat); 10 g/ha): 0%; Percent inhibition AVEFA (AVEFA (wild oat); 30 g/ha): 0%; Percent inhibition AVEFA (AVEFA (wild oat); 100 g/ha): 0%; Percent inhibition AVEFA (AVEFA (wild oat); 300 g/ha): 50%; Percent inhibition AVEFA (AVEFA (wild oat); 900 g/ha): 90%; Percent inhibition ORYSA (rice (ORYSA); 10 g/ha): 0%; Percent inhibition ORYSA (rice (ORYSA); 30 g/ha): 30%; Percent inhibition ORYSA (rice (ORYSA); 100 g/ha): 70%; Percent inhibition ORYSA (rice (ORYSA); 300 g/ha): 60%; Percent inhibition ORYSA (rice (ORYSA); 900 g/ha): 80%
CCN(CC)C(=O)n1cnc(S(=O)(=O)C(F)F)n1 [Example 15, 1-(N,N-diethylcarbamoyl)-3-(difluoromethylsulfonyl)-1,2,4-triazole] | – | – | – | – | 100 g/ha | 0 | 0 | 99 | 70 | 100 | – | – | 300 g/ha | * (activity observed, at least at highest rate, but <80% inhibition) | 0 | 0 | 0 | 0 | [empty] | 30 | inhibition at 10 g/ha (SORVU (shattercane)): 0%; inhibition at 30 g/ha (SORVU (shattercane)): 0%; inhibition at 100 g/ha (SORVU (shattercane)): 20%; inhibition at 300 g/ha (SORVU (shattercane)): 60%; inhibition at 900 g/ha (SORVU (shattercane)): 95%; inhibition at 10 g/ha (rice (ORYSA); 10 g/ha): 0%; inhibition at 10 g/ha [1]: 0%; inhibition at 30 g/ha [1]: 0%; inhibition at 100 g/ha [1]: 20%; inhibition at 300 g/ha [1]: 40%; inhibition at 900 g/ha [1]: 99%

From patent US6461997B1, “Triazole sulfones having herbicidal activity” (Monsanto Technology LLC, priority 1999, dated 2002)
